Assay results reported in patent publication US10370371B2, “Substituted pyrimidine Bmi-1 inhibitors” (PTC Therapeutics, Inc., priority 2013, dated 2019).

Tested on: Bmi-1 protein
Experiment: Sandwich ELISA Assay (Bmi-1 protein level in HT-1080 cells)
Assay type: cell-based
Description: Cell Seeding and Compound Treatment (Day 1):
HT-1080 cells were seeded at 8000 cells/well (50 μL) in 96-well tissue culture plates. After the cells became adherent (3-4 hours), 2× diluted stocks of test compounds in 50 μL DMEM containing 1% DMSO (final DMSO concentration was 0.5%) were added and the plates were incubated at 37° C. under 5% CO2 for 40-48 hours.
ELISA Plate First Antibody Preparation (Day 2):
The First Antibody (Millipore Mouse, monoclonal to mouse Bmi-1, clone F6, catalog #05-637) diluted to 2 μg/mL in PBS was added (100 μL) to each well of a Nunc MaxiSorp 96-well ELISA plate. The plate was covered with a plate seal and allowed to stand overnight.
Cell Lysate Preparation (Day 3):
Fresh Lysis buffer (1×) was prepared on the day of the assay as follows: 1 mM EDTA, 150 mM NaCl, 0.5% Triton-X 100, 10 mM NaF, 20 mM B-Glycerophosphate, 1 mM DTT (in PBS, pH 7.2-7.4) and HALT protease inhibitor cocktail (1×) (Pierce #78410).
Lysis Buffer (1×, 40 μL) was added to each well and the plate was shaken for 5-10 minutes on an orbital shaker to allow cell lysis, then diluent (1% BSA in PBS in 0.5% NP40) (100 μL) was added to each well.
A standard curve was prepared at the following Bmi-1 concentrations: 8000, 4000, 2000, 1000, 500, 250, 125 and 0 pg/mL. The Bmi-1 Recombinant Protein Standard (Novus Biologicals PCGF4 Recombinant Protein (P01), catalog # H00000648-P01) used to prepare the standard curve was stored at −80° C. On first thaw, the Recombinant Protein Standard was diluted to 10 μg/μL in Blocking Buffer (1% BSA in PBS; BSA: Fisher Scientific Catalog #1600-100). Aliquots were taken and refrozen at −80° C. The aliquots may be kept at 4° C. and reused after first thaw, but only within 1-2 weeks. The Recombinant Protein Standard contains a GST-fusion tag that appears at approximately 70 Kda on Western Blot.
The prepared ELISA plate was washed 3× with Wash Buffer (0.05% Tween-20 in PBS). The final wash was removed from the plate and the plate was blotted dry. Blocking Buffer (300 μL) (1% BSA in PBS) was added to each well. The plate was covered with a plate seal and incubated at room temperature for 1 hour. The blocked plate was washed 3× with Wash Buffer, then the final wash was removed and the plate was blotted dry. The previously prepared samples and standards were added (100 μL/well) and the plate was covered with a plate seal and incubated at 4° C. overnight.
The prepared ELISA plate was removed from incubation and allowed to stand at room temperature for 30 minutes, then washed and blotted dry. The Second Antibody (Cell Signaling Rabbit anti-Bmi-1, Cat#2830) diluted to 1:600 in Blocking Buffer was added (100 μL) to each well, except as needed for background control wells. The plate was covered with a plate seal and incubated for 1.5 hrs at room temperature.
The ELISA plate was washed and blotted dry as previously described. The Third Antibody (Cell Signaling HRP conjugated anti-rabbit IgG (CellSignaling, Cat#:7074) diluted to 1:300 in Blocking Buffer was added (100 μL) to each well, except as needed for background control wells. The plate was incubated for 1 hr at room temperature.
The plate was washed and blotted dry, then a previously prepared TMB substrate (TMB substrate kit, Pierce catalog #34021) (prepared by mixing kit reagents 1:1) (100 μL) was added per well. The plate was incubated for 20-30 minutes at room temperature in the dark, then Stop Solution (2 M sulfuric acid in water) (50 μL) was added per well. The plates were read at OD450 (experimental) and OD570 (reference).

| EC50 | SMILES |
| --- | --- |
| 1 to 10 nM | Cc1nc2ccc(F)cn2c1-c1cc(N)nc(Nc2ccc(C(F)(F)F)cc2)n1 [Cpd 1, 6-(6-fluoro-2-methylimidazo[1,2-a]pyridin-3-yl)-N^2-[4-(trifluoromethyl)phenyl]pyrimidine-2,4-diamine] |
| 1 to 10 nM | Cc1nn(C)c(C)c1-c1cc(N)nc(Nc2ccc(C(F)(F)F)cc2)n1 [Cpd 3, N^2-[4-(trifluoromethyl)phenyl]-6-(1,3,5-trimethyl-1H-pyrazol-4-yl)pyrimidine-2,4-diamine] |
| 10 to 100 nM | Cc1nc2ccc(F)cc2n1-c1cc(N)nc(Nc2ccc(C(F)(F)F)cc2)n1 [Cpd 4, 6-(6-fluoro-2-methyl-1H-benzimidazol-1-yl)-N^2-[4-(trifluoromethyl)phenyl]pyrimidine-2,4-diamine] |
| 100 to 3000 nM | Cc1nc2ccccc2n1-c1cc(Cl)nc(Nc2ccc(C(F)(F)F)cc2)n1 [Cpd 6, 4-chloro-6-(2-methyl-1H-benzimidazol-1-yl)-N-[4-(trifluoromethyl)phenyl]pyrimidin-2-amine] |
| 10 to 100 nM | Cc1nc2ccccc2n1-c1cc(N)nc(Nc2ccc(C(F)(F)F)cc2)n1 [Cpd 7, 6-(2-methyl-1H-benzimidazol-1-yl)-N^2-[4-(trifluoromethyl)phenyl]pyrimidine-2,4-diamine] |
| 100 to 3000 nM | Cc1nc2ccccc2n1-c1cc(Cl)nc(Nc2ccc(C(F)(F)F)c(F)c2)n1 [Cpd 8, 4-chloro-N-[3-fluoro-4-(trifluoromethyl)phenyl]-6-(2-methyl-1H-benzimidazol-1-yl)pyrimidin-2-amine] |
| 1 to 10 nM | Nc1cc(-c2c(C3CC3)nc3ccc(F)cn23)nc(Nc2ccc(OC(F)F)c(F)c2)n1 [Cpd 9, 6-(2-cyclopropyl-6-fluoroimidazo[1,2-a]pyridin-3-yl)-N^2-[4-(difluoromethoxy)-3-fluorophenyl]pyrimidine-2,4-diamine] |
| 10 to 100 nM | Cc1nc2ccc(F)cc2n1-c1cc(N)nc(Nc2ccc(OC(F)F)c(F)c2)n1 [Cpd 10, N^2-[4-(difluoromethoxy)-3-fluorophenyl]-6-(6-fluoro-2-methyl-1H-benzimidazol-1-yl)pyrimidine-2,4-diamine] |
| 100 to 3000 nM | Cc1nc2ccccc2n1-c1cc(N)nc(Nc2ccc(C(F)(F)F)c(F)c2)n1 [Cpd 13, N^2-[3-fluoro-4-(trifluoromethyl)phenyl]-6-(2-methyl-1H-benzimidazol-1-yl)pyrimidine-2,4-diamine] |
| 10 to 100 nM | Cc1nc2ccccc2n1-c1cc(N)nc(Nc2ccc(OC(F)F)c(F)c2)n1 [Cpd 14, N^2-[4-(difluoromethoxy)-3-fluorophenyl]-6-(2-methyl-1H-benzimidazol-1-yl)pyrimidine-2,4-diamine] |
| 100 to 3000 nM | Cc1nc2ccccc2n1-c1cc(NCCO)nc(Nc2ccc(C(F)(F)F)cc2)n1 [Cpd 15, 2-{[6-(2-methyl-1H-benzimidazol-1-yl)-2-{[4-(trifluoromethyl)phenyl]amino}pyrimidin-4-yl]amino}ethanol] |
| 100 to 3000 nM | Cc1nc2ccccc2n1-c1cc(NCCO)nc(Nc2ccc(C(F)(F)F)c(F)c2)n1 [Cpd 16, 2-{[2-{[3-fluoro-4-(trifluoromethyl)phenyl]amino}-6-(2-methyl-1H-benzimidazol-1-yl)pyrimidin-4-yl]amino}ethanol] |
| 100 to 3000 nM | Cc1nc2ccccc2n1-c1cc(NCCO)nc(Nc2ccc(OC(F)F)c(F)c2)n1 [Cpd 17, 2-{[2-{[4-(difluoromethoxy)-3-fluorophenyl]amino}-6-(2-methyl-1H-benzimidazol-1-yl)pyrimidin-4-yl]amino}ethanol] |
| 100 to 3000 nM | Cc1nc2cc(F)c(F)cc2n1-c1cc(Cl)nc(Nc2ccc(C(F)(F)F)cc2)n1 [Cpd 18, 4-chloro-6-(5,6-difluoro-2-methyl-1H-benzimidazol-1-yl)-N-[4-(trifluoromethyl)phenyl]pyrimidin-2-amine] |
| 100 to 3000 nM | Cc1nc2cc(F)c(F)cc2n1-c1cc(Cl)nc(Nc2ccc(C(F)(F)F)c(F)c2)n1 [Cpd 19, 4-chloro-6-(5,6-difluoro-2-methyl-1H-benzimidazol-1-yl)-N-[3-fluoro-4-(trifluoromethyl)phenyl]pyrimidin-2-amine] |
| 10 to 100 nM | Cc1nc2cc(F)c(F)cc2n1-c1cc(N)nc(Nc2ccc(C(F)(F)F)cc2)n1 [Cpd 20, 6-(5,6-difluoro-2-methyl-1H-benzimidazol-1-yl)-N^2-[4-(trifluoromethyl)phenyl]pyrimidine-2,4-diamine] |
| 100 to 3000 nM | Cc1nc2cc(F)c(F)cc2n1-c1cc(NCCO)nc(Nc2ccc(C(F)(F)F)cc2)n1 [Cpd 21, 2-{[6-(5,6-difluoro-2-methyl-1H-benzimidazol-1-yl)-2-{[4-(trifluoromethyl)phenyl]amino}pyrimidin-4-yl]amino}ethanol] |
| 10 to 100 nM | Cc1nc2ccccc2n1-c1cc(NO)nc(Nc2ccc(C(F)(F)F)cc2)n1 [Cpd 22, N^4-hydroxy-6-(2-methyl-1H-benzimidazol-1-yl)-N^2-[4-(trifluoromethyl)phenyl]pyrimidine-2,4-diamine] |
| 10 to 100 nM | CCc1nc2ccccc2n1-c1cc(N)nc(Nc2ccc(C(F)(F)F)cc2)n1 [Cpd 23, 6-(2-ethyl-1H-benzimidazol-1-yl)-N^2-[4-(trifluoromethyl)phenyl]pyrimidine-2,4-diamine] |
| 100 to 3000 nM | Cc1nc2cc(F)c(F)cc2n1-c1cc(N)nc(Nc2ccc(C(F)(F)F)c(F)c2)n1 [Cpd 24, 6-(5,6-difluoro-2-methyl-1H-benzimidazol-1-yl)-N^2-[3-fluoro-4-(trifluoromethyl)phenyl]pyrimidine-2,4-diamine] |
| 100 to 3000 nM | Nc1cc(-c2ccnc3ccccc23)nc(Nc2ccc(C(F)(F)F)cc2)n1 [Cpd 25, 6-(quinolin-4-yl)-N^2-[4-(trifluoromethyl)phenyl]pyrimidine-2,4-diamine] |
| 10 to 100 nM | CCc1nc2ccc(F)cc2n1-c1cc(N)nc(Nc2ccc(C(F)(F)F)cc2)n1 [Cpd 26, 6-(2-ethyl-6-fluoro-1H-benzimidazol-1-yl)-N^2-[4-(trifluoromethyl)phenyl]pyrimidine-2,4-diamine] |
| 10 to 100 nM | Nc1cc(-n2c(C3CC3)nc3ccc(F)cc32)nc(Nc2ccc(C(F)(F)F)cc2)n1 [Cpd 27, 6-(2-cyclopropyl-6-fluoro-1H-benzimidazol-1-yl)-N^2-[4-(trifluoromethyl)phenyl]pyrimidine-2,4-diamine] |
| 1 to 10 nM | Nc1cc(-c2c(CO)nc3ccccn23)nc(Nc2ccc(C(F)(F)F)cc2)n1 [Cpd 28, [3-(6-amino-2-{[4-(trifluoromethyl)phenyl]amino}pyrimidin-4-yl)imidazo[1,2-a]pyridin-2-yl]methanol] |
| 10 to 100 nM | Nc1cc(-c2c(CO)nc3ccc(F)cn23)nc(Nc2ccc(C(F)(F)F)cc2)n1 [Cpd 29, [3-(6-amino-2-{[4-(trifluoromethyl)phenyl]amino}pyrimidin-4-yl)-6-fluoroimidazo[1,2-a]pyridin-2-yl]methanol] |
| 100 to 3000 nM | Cc1nc2ccccc2n1-c1cc(Cl)nc(Nc2ccc(OC(F)F)c(F)c2)n1 [Cpd 30, 4-chloro-N-[4-(difluoromethoxy)-3-fluorophenyl]-6-(2-methyl-1H-benzimidazol-1-yl)pyrimidin-2-amine] |
| 1 to 10 nM | Cc1nc2ncc(Cl)cc2n1-c1cc(N)nc(Nc2ccc(C(F)(F)F)cc2)n1 [Cpd 31, 6-(6-chloro-2-methyl-1H-imidazo[4,5-b]pyridin-1-yl)-N^2-[4-(trifluoromethyl)phenyl]pyrimidine-2,4-diamine] |
| 10 to 100 nM | CCc1nc2ncc(Cl)cc2n1-c1cc(N)nc(Nc2ccc(C(F)(F)F)cc2)n1 [Cpd 32, 6-(6-chloro-2-ethyl-1H-imidazo[4,5-b]pyridin-1-yl)-N^2-[4-(trifluoromethyl)phenyl]pyrimidine-2,4-diamine] |
| 10 to 100 nM | Cc1nc2c(F)cc(F)cc2n1-c1cc(N)nc(Nc2ccc(C(F)(F)F)cc2)n1 [Cpd 34, 6-(4,6-difluoro-2-methyl-1H-benzimidazol-1-yl)-N^2-[4-(trifluoromethyl)phenyl]pyrimidine-2,4-diamine] |
